In brackets after ≈: the same amount, converted by molar mass. Like-named read-outs stand apart in the source and are kept apart here.

From publication PMC9977398, “Next-generation membrane-active glycopeptide antibiotics that also inhibit bacterial cell division” (Chemical Science, 2023) come the findings set out here.

Test [1] has as its system VRE 51559 (vancomycin-resistant E. faecium, VanA phenotype, ATCC 51559). Description: MIC determination, micro-dilution broth. Format: cell-based.
In test [2] the test system is VRE 51575 (vancomycin-resistant E. faecalis, VanB phenotype, ATCC 51575). Description: MIC determination, micro-dilution broth. The class given is cell-based. (In broth dilution the organism is exposed to a series of concentrations in liquid medium.)
Test [3] has as its system VRSA 1 (vancomycin-resistant S. aureus). Description: MIC determination, micro-dilution broth. The class given is cell-based. The note with it: Staphylococcus aureus, read-out: Minimum inhibitory concentration, VRSA 1.
In test [4] the test system is VRSA 12 (vancomycin-resistant S. aureus). Briefly: MIC determination, micro-dilution broth. Format: cell-based. The note with it: Staphylococcus aureus, read-out: Minimum inhibitory concentration, VRSA 12.
For test [5], the system named is VRSA 4 (vancomycin-resistant S. aureus). Description: MIC determination, micro-dilution broth. The class given is cell-based. The note with it: Staphylococcus aureus, read-out: Minimum inhibitory concentration, VRSA 4.
In another test the test system is B. subtilis. Briefly: Cytoplasmic membrane depolarization assay, DiSC3(5). The class given is cell-based. The note with it: exponentially growing B. subtilis, 10 μM. The source says: The membrane disruption properties of both VanQbiph (4) and VanQAmC10 (8) were studied to correlate the extent of membrane perturbation and bactericidal activity against both exponentially growing and non-growing bacterial cells. Their ability to depolarize the membrane was monitored using the fluorescent probe DiSC3(5) (3,3′-dipropylthiadicarbocyanine iodide). DiSC3(5) is sensitive to the membrane potential and as it accumulates in the membrane, the fluorescence intensity decreases due to self-quenching. Upon dissipation of membrane potential, an increase in fluorescence is observed due to DiSC3(5) being dispersed in the solution. […]
were added to it the wells containing bacterial suspension. Fluorescence has monitored at excitation wavelength of 535 nm (slit width: 10 nm) and emission wavelength of 617 nm (slit width: 5 nm). As a measure of inner membrane permeabilization the uptake of PI was monitor by the increase in fluorescence for 30-50 min. […]
Mid log phase MRSA were harvested (3500 rpm, 5 min), washed in 5 mM glucose and 5 mM HEPES buffer (pH 7.2) in 1:1 ratio and resuspended in 5 mM HEPES buffer, 5 mM glucose and 100 mM KCl solution in 1:1:1 ratio. […] The fluorescence was monitored at excitation wavelength of 622 nm and emission wavelength of 670 nm. […] As a measure of membrane depolarization fluorescence was monitor for another 35 min. […]

In another test the test system is biofilms of MRSA. Description: Disruption of mature biofilms, confocal microscopy. The class given is cell-based, S. aureus. The note with it: 20 μM; for thickness of biofilm after treatment: 24 h, untreated 11.8 μm. The source says:
Another growing challenge in treating bacterial infections is the formation of biofilms, which are recalcitrant to antibiotic treatment.[29] Most antibiotics including vancomycin are rendered ineffective against biofilms consisting of both dividing and non-dividing cells, majorly due to their inability to penetrate through the extracellular polymeric matrix. Thus, it is important to develop compounds that eradicate biofilms as well as planktonic cells. Untreated biofilms of MRSA grew to a thickness of 11.8 μm (Fig. S3A ^†). The vancomycin-treated biofilms remained intact with thickness similar to the untreated control. […]
were added to it the wells containing bacterial suspension. Fluorescence has monitored at excitation wavelength of 535 nm (slit width: 10 nm) and emission wavelength of 617 nm (slit width: 5 nm). As a measure of inner membrane permeabilization the uptake of PI was monitor by the increase in fluorescence for 30-50 min. For assessing depolarisation against stationary phase cells of MRSA ATCC 33591, cells were grown to the stationary phase for 16 h. The culture was then diluted to an OD600 of 0.2 and the depolarisation assays was performed as described. The experiments were performed three times independently in duplicates and the graph is representative of the results from all experiments.
Cytoplasmic membrane depolarization assay5
Mid log phase MRSA were harvested (3500 rpm, 5 min), washed in 5 mM glucose and 5 mM HEPES buffer (pH 7.2) in 1:1 ratio and resuspended in 5 mM HEPES buffer, 5 mM glucose and 100 mM KCl solution in 1:1:1 ratio. Then 2 μM of 3, 3′-Dipropylthiadicarbocyanine iodide (DiSC3(5)) was added to bacterial suspension and pre-incubated for 45 min. The fluorescence was monitored at excitation wavelength of 622 nm and emission wavelength of 670 nm. Then 20 μL of test compound and vancomycin were added to black well plates containing bacterial suspension and DiSC3(5) after 2-4 min of fluorescence measurement. As a measure of membrane depolarization fluorescence was monitor for another 35 min. […]

In the case of `CNC(CC(C)C)C(=O)NC1C(=O)NC(CC(N)=O)C(=O)NC2C(=O)NC3C(=O)NC(C(=O)NC(C(=O)NCCC[N+](C)(C)Cc4ccc(-c5ccccc5)cc4)c4cc(O)cc(O)c4-c4cc3ccc4O)C(O)c3ccc(c(Cl)c3)Oc3cc2cc(c3OC2OC(CO)C(O)C(O)C2OC2CC(C)(N)C(O)C(C)O2)Oc2ccc(cc2Cl)C1O` (stereo not drawn) [VanQbiph (4)], the MIC in test [1] (Enterococcus; read-out: Minimum inhibitory concentration, VRE 51559) amounted to 6.1 µM; in test [2] (Enterococcus; read-out: Minimum inhibitory concentration, VRE 51575) it was 12.3 µM; in test [3] it was 7.8 µM; in test [4], 15.7 µM; in test [5], 3.9 µM. In the test on B. subtilis, the “time to membrane depolarisation post-treatment” value is ≤ 2 min.
For the compound `CN[C@H](CC(C)C)C(=O)N[C@H]1C(=O)N[C@@H](CC(N)=O)C(=O)N[C@H]2C(=O)N[C@H]3C(=O)N[C@H](C(=O)N[C@H](C(=O)O)c4cc(O)cc(O)c4-c4cc3ccc4O)[C@H](O)c3ccc(c(Cl)c3)Oc3cc2cc(c3O[C@@H]2O[C@H](CO)[C@@H](O)[C@H](O)[C@H]2O[C@H]2C[C@](C)(N)[C@H](O)[C@H](C)O2)Oc2ccc(cc2Cl)[C@H]1O` [Vancomycin, reference compound], the MIC in test [1] (Enterococcus, read-out: Minimum inhibitory concentration, VRE 51559) came out at 250 µM (≈ 362 µg/mL); in test [2] (Enterococcus, read-out: Minimum inhibitory concentration, VRE 51575) it was 750 µM (≈ 1090 µg/mL); in test [3] it was 345 µM (≈ 500 µg/mL); in test [4], 345 µM (≈ 500 µg/mL); in test [5] it was 345 µM (≈ 500 µg/mL). For the same compound, the “thickness of biofilm after treatment” value in the test on biofilms of MRSA is reported as 10.1 μm.
As to `CCCCCCCCCCNC(=O)C[N+](C)(C)CCCNC(=O)C1NC(=O)C2NC(=O)C(NC(=O)C3NC(=O)C(CC(N)=O)NC(=O)C(NC(=O)C(CC(C)C)NC)C(O)c4ccc(c(Cl)c4)Oc4cc3cc(c4OC3OC(CO)C(O)C(O)C3OC3CC(C)(N)C(O)C(C)O3)Oc3ccc(cc3Cl)C2O)c2ccc(O)c(c2)-c2c(O)cc(O)cc21` (stereo not drawn) [VanQAmC10 (8)], the “thickness of biofilm after treatment” value in the test with biofilms of MRSA is recorded as 7.4 μm. Further, the “reduction of thickness of biofilms” value with biofilms of MRSA (mature MRSA biofilm) is given as “about 40%”. Further, the “time to membrane depolarisation post-treatment” value with B. subtilis is ≤ 2 min.
